# Test system: lens
# Assay: Pharmacological Test 2: lens elasticity after instillation of sodium ursodeoxycholate
# Assay type: in vivo, C57BL/6J mice
# Conditions: 1.5% (w/v) sample, 2.5 μL/eye, 3 times per day, 12 to 15 days, vs vehicle control
# Experimental: A vehicle comprising 0.1% (w/v) of ethyl pyruvate, 0.269% (w/v) of sodium dihydrogenphosphate monohydrate (NaH2PO4H2O), 0.433% (w/v) of disodium hydrogenphosphate (Na2HPO4), 0.2% (w/v) of hydroxypropyl methylcellulose, 0.5% (w/v) of NaCl was prepared. Sodium ursodeoxycholate was sonicated with the addition of the vehicle to prepare a 1.5% (w/v) suspension. The resulting 1.5% (w/v) suspension was diluted with the vehicle to prepare a 0.5% (w/v) suspension. Further, the resulting 0.5% (w/v) suspension was diluted with the vehicle to prepare a 0.15% (w/v) suspension. The total amount of each sample to be used in one day was prepared before use. EV06 was sonicated with the addition of the vehicle to prepare a 1.5% (w/v) solution. The total amount of the sample to be used in one day was prepared before use. 1) Each test sample (2.5 μL/eye) was instilled into the right eye of 8-month-old C57BL/6J mice with a Pipetman 3 times per day (around 9:00, 13:00 and 17:00) for 12 to 15 days. 2) After the final instillation, the mice were euthanized by carbon dioxide inhalation, and then the eyeballs were extracted and rinsed with Hank's balanced salt solution (HBSS)). 3) The sclera near the optic nerve was cut with a razor, the lens was removed through the incision, and the removed lens was immersed in HBSS. 4) The lens was placed on a glass slide, and an all-in-one fluorescence microscope BZ-9000 (Keyence) was used to capture an image of the lens (Image a). 5) Next, one cover glass (Corning^(registered trade mark) 22×22 mm Square) was placed on the lens, and an image in which the thickness of the lens changed due to the weight was similarly captured (Image b). 6) A change in the lens diameter was calculated from Equation 1 wherein the lens diameter of Image a is subtracted from the lens diameter of Image b, as described below. Then, the lens elasticity improvement of each sample group compared with the vehicle control group was calculated from Equation 2 described below. The mean of the vehicle control group was based on 5 eyes, the mean of each sodium ursodeoxycholate sample group was based on 10 eyes, and the mean of the EV06 sample group was based on 10 eyes. Change in lens diameter Lens diameter in image b of each test sample−Lens diameter in Image a of each test sample (Equation 1) Lens elasticity improvement of each sample group=Mean change in lens diameter of each Test sample group−Mean change in lens diameter of Vehicle control group (Equation 2)
compound,measurement,value
"C[N+](C)(C)CCOC(=O)CCCC[C@@H]1CCSS1 [EV06, lipoic acid choline ester]",Lens elasticity improvement,38.2 μm

# Source: US20230040386A1, “URSODEOXYCHOLIC ACID-CONTAINING AGENT FOR TREATING OR PREVENTING PRESBYOPIA” (priority 2018, published 2023)
